Measured values reported in patent US7812032B2 (Abbott Laboratories, priority 2006, dated 2010).
Where two headings read alike, the source gives them in different places. One block for each compound: values may come before it.

Assays:
[1] = pharmacokinetics after single intravenous dose in cynomolgus monkey; format: in vivo; conditions: for t1/2: in vivo, iv, 2.5 mg/kg; for terminal elimination half-life (t1/2) compared to rapamycin: 2.5 mg/kg intravenous
[2] = tested on: human mixed lymphocyte reaction (MLR); assay: human mixed lymphocyte reaction (MLR) assay; format: cell-based; conditions: read-out: Human MLR IC50 ± S.E.M.
[3] = rate of release of A-179578 from 316L stainless steel coupons coated with PC polymer; format: physicochemical; conditions: PC polymer coated 316L coupons, 0.01 M phosphate buffer pH 6.0
Description: Rubber septa from lids from HPLC vials were removed from the vials and placed into glass vials so that the “Teflon” side faced up. These septa served as supports for the test samples. The test samples were 316L stainless steel coupons that had been previously coated with a biocompatible polymer containing phosphorylcholine side groups (PC polymer). Coronary stents are commonly made of 316L stainless steel and can be coated with the PC polymer to provide a depot site for loading drugs. The coated coupons, which serve to simulate stents, were placed onto the septa. By using a glass Hamilton Syringe, a solution of A-179578 and ethanol (10 μl) was applied to the surface of each coupon. The solution contained A-179578 (30.6 mg) dissolved in 100% ethanol (3.0 ml). The syringe was cleaned with ethanol between each application. The cap to the glass vial was placed on the vial loosely, thereby assuring proper ventilation. The coupon was allowed to dry for a minimum of 1.5 hours. Twelve (12) coupons were loaded in this way, six being used to determine the average amount of drug loaded onto the device and six being used to measure the time needed to release the drug from the devices.
The coupon was placed onto a 5210 Branson sonicator for one hour. The coupon was then removed from the solution, and the solution was assayed by HPLC.
The time release studies were performed by immersing and removing the individual coupons from fresh aliquots (10.0 ml) of 0.01 M phosphate buffer at a pH of 6.0 at each of the following time intervals; 5, 15, 30 and 60 minutes. For the remaining time points of 120, 180, 240, 300, 360 minutes, volumes of 5.0 ml of buffer were used. To facilitate mixing during the drug release phase, the samples were placed onto a Eberbach shaker set at low speed. All solution aliquots were assayed by HPLC after the testing of the last sample was completed.
The HPLC analysis was performed with a Hewlett Packard series 1100 instrument having the following settings: Injection Volume is 100 μl; Acquisition Time is 40 minutes; Flow Rate is 1.0 ml/min; Column Temperature is 40 degrees Celsius; Wavelength is 278 nm; Mobile Phase is 65% Acetonitrile/35% H2O; and Column is YMC ODS-A S5 μm, 4.6×250 mm (Part No. A12052546WT).

[4] = tested on: neointimal hyperplasia in porcine coronary arteries containing stents; assay: porcine coronary stent model, A-179578 eluted from BiodivYsio PC coronary stent, 28 days; format: in vivo
Description: The control stents are polymer-coated without drugs. This is important, for the polymer itself must not stimulate neointimal hyperplasia to a substantial degree. As the eluted drug disappears, an inflammatory response to the polymer could conceivably result in a late “catch-up phenomenon” where the restenosis process is not stopped, but instead slowed. This phenomenon would result in restenosis at late dates in human subjects.
Stents were implanted in two blood vessels in each pig. Pigs used in this model were generally 2-4 months old and weighed 30-40 kg. Two coronary stents were thus implanted in each pig by visually assessing a “normal” stent:artery ratio of 1.1-1.2.
Beginning on the day of the procedure, pigs were given oral aspirin (325 mg daily) and continued for the remainder of their course. General anesthesia was achieved by means of intramuscular injection followed by intravenous ketamine (30 mg/kg) and xylazine (3 mg/kg). Additional medication at the time of induction included atropine (1 mg) and flocillin (1 g) administered intramuscularly. During the stenting procedure, an intraarterial bolus of 10,000 units of heparin was administered.
Arterial access was obtained by cutdown on the right external carotid and placement of an 8F sheath. After the procedure, the animals were maintained on a normal diet without cholesterol or other special supplementation.
The BiodivYsio stent was used with nominal vessel target size of 3.0 mm. Two coronary arteries per pig were assigned at random to deployment of the stents. The stent was either a drug eluting stent (polymer plus drug stent) or a stent coated with a polymer only (polymer only stent). The stents were delivered by means of standard guide catheters and wires. The stent balloons were inflated to appropriate sizes for less than 30 seconds.
Each pig had one polymer only stent and one polymer plus drug stent placed in separate coronary arteries, so that each pig would have one stent for drug and one for control. A sample size of 20 pigs total was chosen to detect a projected difference in neointimal thickness of 0.2 mm with a standard deviation of 0.15 mm, at a power of 0.95 and […] 0.02.
Animals were euthanized at 28 days for histopathologic examination and quantification. Following removal of the heart from the perfusion pump system, the left atrial appendage was removed for access to the proximal coronary arteries. Coronary arterial segments with injuries were dissected free of the epicardium. Segments containing lesions were isolated, thereby allowing sufficient tissue to contain uninvolved blood vessel at either end. […]
The severity of vessel injury and the neointimal response were measured by calibrated digital microscopy. […]

[5] = loading and release of ABT-578 from 15 mm BiodivYsio drug delivery stents; format: physicochemical; conditions: 15 mm BiodivYsio stents, 0.01 M phosphate buffer pH 6.0
Protocol: Twelve individual polymer-coated stents were placed on fixtures designed to hold the stent in a vertical position and the stents were immersed vertically in the drug solution for five minutes. The stents and fixtures were removed from the vials and excess drug solution was blotted away by contacting the stents with an absorbant material. The stents were then allowed to dry in air for 30 minutes in an inverted vertical position.
The stents were removed from the fixtures, and each stent was placed into 50/50 acetonitrile/phosphate buffer (pH 5.1, 2.0 ml) and sonicated for one hour. The stents were removed from the solution and solutions were assayed for concentration of drug, which allowed calculation of the amount of drug originally on the stents. This method was independently shown to remove at least 95% of the drug from the stent coating. On average, the stents contained 60 micrograms of drug ±20 micrograms.
The drug-loaded stents were placed on the fixtures and placed into 0.01 M phosphate buffer (pH=6.0, 1.9 ml) in individual vials. These samples were placed onto an Eberbach shaker set at low speed to provide back-and-forth agitation. To avoid approaching drug saturation in the buffer, the stents were transferred periodically to fresh buffer vials at the following points: 15, 30, 45, 60, 120, 135, 150, 165, 180, 240, 390 minutes. The dissolution buffer vials were assayed by HPLC for the drug concentration at the end of the drug release period studied. The data, represented as % cumulative release of the drug as a function of time, is shown in tabular form below: […]

[6] = tested on: in-stent neointima formation in coronary arteries of adult miniature swine; assay: safety and efficacy of ABT-578 dosages on in-stent neointima formation, BiodivYsio OC stent in swine; format: in vivo, Yucatan miniature swine
Protocol: The purpose of this example was to evaluate the safety and efficacy of different drug dosages on neointima formation. […] In-stent neointima formation was measured at […] time intervals; 3 days, 1 month, and 3 months in the coronary arteries of adult miniature swine. Forty (40) animals were studied at each time interval (10 animals per dose). Each animal received one drug-coated stent and one control stent. The control stent contained no drug.
Potential local tissue toxicity was assessed at all time intervals by examining histopathologic changes in the stented region, adjacent coronary segments, perivascular tissue, and subserved myocardium. The mortality, angiographic implant and restudy data, histomorphometry data, and stent site histopathology were studied.

[7] = porcine coronary artery, 28 days
[8] = one month, dose groups 3 and 4 vs control

t1/2 [1]: 2.8 h | IC50 [2]: 12.4 ± 5.3 nM
Compound: 40-epi-N-[2′-pyridone]-rapamycin [Example 2-pyridone, reference compound]

terminal elimination half-life (t1/2) compared to rapamycin [1]: substantially shorter
Compound: CO[C@H]1C[C@@H]2CC[C@@H](C)[C@@](O)(O2)C(=O)C(=O)N2CCCC[C@H]2C(=O)O[C@H]([C@H](C)C[C@@H]2CC[C@H](n3ncnn3)[C@H](OC)C2)CC(=O)[C@H](C)/C=C(\C)[C@@H](O)[C@@H](OC)C(=O)[C@H](C)C[C@H](C)/C=C/C=C/C=C/1C [Example 1B, 42-(2-tetrazolyl)-rapamycin]

Compound: COC1CC2CCC(C)C(O)(O2)C(=O)C(=O)N2CCCCC2C(=O)OC(C(C)CC2CCC(n3cnnn3)C(OC)C2)CC(=O)C(C)C=C(C)C(O)C(OC)C(=O)C(C)CC(C)C=CC=CC=C1C (centres unmarked) [Example 1C, 42-(1-tetrazolyl)-rapamycin]
Percent Release ([3]; 0.00 min): 0.00 | Percent Release ([3]; 5.00 min): 1.87 | Percent Release ([3]; 15.00 min): 2.97 | Percent Release ([3]; 30.00 min): 3.24 | Percent Release ([3]; 60.00 min): 3.29 | Percent Release ([3]; 180.00 min): 4.36 | Percent Release ([3]; 240.00 min): 4.37 | Percent Release ([3]; 300.00 min): 6.34 | Percent Release ([3]; 360.00 min): 7.88 | lumen area vs polymer only stent [4, 7]: greater lumen area | neointimal area vs polymer only stent [4, 7]: lower neointimal area | neointimal thickness vs polymer only stent [4, 7]: lower neointimal thickness | neointimal hyperplasia ([4]; stent with polymer placed in porcine coronary artery): reduction in neointimal hyperplasia

Compound: CO[C@H]1C[C@@H]2CC[C@@H](C)[C@@](O)(O2)C(=O)C(=O)N2CCCC[C@H]2C(=O)O[C@H]([C@H](C)C[C@@H]2CC[C@H](n3cnnn3)[C@H](OC)C2)CC(=O)[C@H](C)/C=C(\C)[C@@H](O)[C@@H](OC)C(=O)[C@H](C)C[C@H](C)/C=C/C=C/C=C/1C [Example 1C, 42-(1-tetrazolyl)-rapamycin]
terminal elimination half-life (t1/2) compared to rapamycin [1]: substantially shorter | % Cumulative Release of Drug ([5]; 15 min): 0.3% | % Cumulative Release of Drug ([5]; 30 min): 1.1% | % Cumulative Release of Drug ([5]; 45 min): 2.1% | % Cumulative Release of Drug ([5]; 60 min): 3.2% | % Cumulative Release of Drug ([5]; 120 min): 4.3% | % Cumulative Release of Drug ([5]; 135 min): 5.9% | % Cumulative Release of Drug ([5]; 150 min): 6.3% | % Cumulative Release of Drug ([5]; 165 min): 6.8% | % Cumulative Release of Drug ([5]; 180 min): 7.4% | % Cumulative Release of Drug ([5]; 240 min): 10.8% | % Cumulative Release of Drug ([5]; 390 min): 13.2% | local coronary arterial wall toxicity (medial necrosis or stent malapposition) ([6]; any dose group incl. approximately 27 μg/mm, any time interval): no local coronary arterial wall toxicity | histologic % stenosis ([6]; one month, dose group 3 vs control): tendency towards decreased | Intima area normalized to injury score ([6]; one month, dose groups 3 and 4 (10 and 27 μg/mm) vs control): significantly decreased | absolute intima area [6, 8]: trends for decreases | intima thickness [6, 8]: trends for decreases | vessel wall toxicity ([6]; one month, even at the highest dose (27 μg/mm)): no evidence of vessel wall toxicity | neointima formation in stented coronary arteries ([6]; one-month group, locally eluted): significant inhibitory effect | endothelial recovery over the stent struts ([6]; three days after implant, regardless of dosage): did not appear retarded | neointima cross-sectional area and % area stenosis of the lumen ([6]; three-month period): weak trends for decreases | histomorphometric parameters of stented coronary arterial dimension ([6]; three-month period, between the dose groups): no significant differences

t1/2 [1]: 13.3 h | IC50 [2]: 0.43 ± 0.2 nM
Compound: COC1CC2CCC(C)C(O)(O2)C(=O)C(=O)N2CCCCC2C(=O)OC(C(C)CC2CCC(n3ccc(=O)cc3)C(OC)C2)CC(=O)C(C)C=C(C)C(O)C(OC)C(=O)C(C)CC(C)C=CC=CC=C1C (stereo not drawn) [Example 4-pyridone, 40-epi-N-[4′-pyridone]-rapamycin, reference compound]

IC50 ([2]; Homo sapiens, Lymphocyte): 0.91 ± 0.36 nM
Compound: CO[C@H]1C[C@@H]2CC[C@@H](C)[C@@](O)(O2)C(=O)C(=O)N2CCCC[C@H]2C(=O)O[C@H]([C@H](C)C[C@@H]2CC[C@@H](O)[C@H](OC)C2)CC(=O)[C@H](C)/C=C(\C)[C@@H](O)[C@@H](OC)C(=O)[C@H](C)C[C@H](C)/C=C/C=C/C=C/1C [Rapamycin]
